Results published in ChEMBL document CHEMBL1201862, “PubChem BioAssay data set” (2004).
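Exposure lasted 48 hours, with cells grown in 96-well plates and compounds tested at five concentrations. Here, GI50 denotes the concentration required for 50% inhibition of growth.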 Calls of active or inactive are those of the source. Cut-off read from the data, not from the text of the source: active = GI50 up to about 1.1 µM and inactive = higher. Peptide text beside a SMILES is read from it. * marks the point of attachment. Cbz = O=C(OCc1ccccc1)*; Boc = CC(C)(C)OC(=O)*; OBn = c1ccc(CO*)cc1

Columns and labels:
Assay in all cases: growth of human tumour cells (NCI), 48 h
786-0 = tested on: 786-0
ACHN = tested on: ACHN
CAKI-1 = tested on: CAKI-1
COLO 205 = tested on: COLO 205
HOP-92 = tested on: HOP-92
Hs-578T = tested on: Hs-578T
IGROV-1 = tested on: IGROV-1
K562 = tested on: K562
MDA-MB-231 = tested on: MDA-MB-231
MDA-MB-435 = tested on: MDA-MB-435
MDA-N = tested on: MDA-N
Malme-3M = tested on: Malme-3M
NCI-H226 = tested on: NCI-H226
NCI-H522 = tested on: NCI-H522
PC-3 = tested on: PC-3
SF-295 = tested on: SF-295
SF-539 = tested on: SF-539
SN12C = tested on: SN12C
U-251 = tested on: U-251
UACC-257 = tested on: UACC-257

Structure (SMILES)	GI50 (786-0)	GI50 (ACHN)	GI50 (CAKI-1)	GI50 (COLO 205)	GI50 (HOP-92)	GI50 (Hs-578T)	GI50 (IGROV-1)	GI50 (K562)	GI50 (MDA-MB-231)	GI50 (MDA-MB-435)	GI50 (MDA-N)	GI50 (Malme-3M)	GI50 (NCI-H226)	GI50 (NCI-H522)	GI50 (PC-3)	GI50 (SF-295)	GI50 (SF-539)	GI50 (SN12C)	GI50 (U-251)	GI50 (UACC-257)
O=C(O)CCCSc1ccccc1	> 100 µM (inactive)	> 100 µM (inactive)	> 100 µM (inactive)	> 100 µM (inactive)	> 100 µM (inactive)	> 100 µM (inactive)	> 100 µM (inactive)	> 100 µM (inactive)	> 100 µM (inactive)	> 100 µM (inactive)	> 100 µM (inactive)	> 100 µM (inactive)	> 100 µM (inactive)	> 100 µM (inactive)	> 100 µM (inactive)	> 100 µM (inactive)	> 100 µM (inactive)	> 100 µM (inactive)	> 100 µM (inactive)	> 100 µM (inactive)
CC(C)CCC1(O)O[C@H]2C[C@H]3[C@@H]4CCC5CC(=O)C=C[C@]5(C)[C@H]4CC[C@]3(C)[C@H]2[C@@H]1C (stereo not given in full)	12.3 µM (inactive)	13.7 µM (inactive)	14.5 µM (inactive)	14.4 µM (inactive)	3.58 µM (inactive)	2.82 µM (inactive)	15.6 µM (inactive)	5.07 µM (inactive)	14.5 µM (inactive)	11.6 µM (inactive)	13.2 µM (inactive)	14.9 µM (inactive)	0.612 µM (active)	1.8 µM (inactive)	5.02 µM (inactive)	11.7 µM (inactive)	17.6 µM (inactive)	14.4 µM (inactive)	10.7 µM (inactive)	15 µM (inactive)
CCCCCCCCCCCCCCCCCCNc1nc(=O)n(C2CC(O)C(COP(=O)(O)OCC(COP(=O)(O)OC3C(CO)OC(n4ccc(N)nc4=O)C3O)OCCCCCCCCCCCCCCCCCC)O2)cc1F (stereo not given)	14.8 µM (inactive)	23.3 µM (inactive)	46.3 µM (inactive)	16.7 µM (inactive)	> 100 µM (inactive)	78.5 µM (inactive)	46.8 µM (inactive)	22.9 µM (inactive)	> 100 µM (inactive)	> 100 µM (inactive)	> 100 µM (inactive)	41.4 µM (inactive)	> 100 µM (inactive)	11.9 µM (inactive)	13.2 µM (inactive)	> 100 µM (inactive)	17.4 µM (inactive)	> 100 µM (inactive)	13.3 µM (inactive)	97.3 µM (inactive)
CC1(C)N=C(N)N=C(N)N1c1cccc(C(=O)Nc2ccc(S(=O)(=O)F)cc2)c1	> 100 µM (inactive)	> 100 µM (inactive)	> 100 µM (inactive)	> 100 µM (inactive)	> 100 µM (inactive)	> 100 µM (inactive)	> 100 µM (inactive)	> 100 µM (inactive)	> 100 µM (inactive)	> 100 µM (inactive)	> 100 µM (inactive)	> 100 µM (inactive)	> 100 µM (inactive)	> 100 µM (inactive)	> 100 µM (inactive)	> 100 µM (inactive)	> 100 µM (inactive)	> 100 µM (inactive)	> 100 µM (inactive)	> 100 µM (inactive)
CSc1c(C#N)c(O)nc(N)c1C(=O)Nc1ccc(Cl)cc1	7.36 µM (inactive)	3.18 µM (inactive)	12.6 µM (inactive)	10.6 µM (inactive)	21.7 µM (inactive)	31 µM (inactive)	23.2 µM (inactive)	4.54 µM (inactive)	15.6 µM (inactive)	3.55 µM (inactive)	12 µM (inactive)	26.5 µM (inactive)	28 µM (inactive)	14.1 µM (inactive)	13.2 µM (inactive)	11 µM (inactive)	16.4 µM (inactive)	23.8 µM (inactive)	19.5 µM (inactive)	6.78 µM (inactive)
CC1(C)CCC2=C(O1)/C(=N\Nc1ccc(S(N)(=O)=O)cc1)c1ccccc1C2=O	7.5 µM (inactive)	19.8 µM (inactive)	14.8 µM (inactive)	20.3 µM (inactive)	12.4 µM (inactive)	3.13 µM (inactive)	14.2 µM (inactive)	28.4 µM (inactive)	2.56 µM (inactive)	10.7 µM (inactive)	2.84 µM (inactive)	3.3 µM (inactive)	4.99 µM (inactive)	12.1 µM (inactive)	13.6 µM (inactive)	11.8 µM (inactive)	10.4 µM (inactive)	11.2 µM (inactive)	8.73 µM (inactive)	9.55 µM (inactive)
CC(=O)NNC(=O)C1CCCCN1 (stereo not given)	> 100 µM (inactive)	> 100 µM (inactive)	> 100 µM (inactive)	> 100 µM (inactive)	> 100 µM (inactive)	> 100 µM (inactive)	> 100 µM (inactive)	> 100 µM (inactive)	> 100 µM (inactive)	> 100 µM (inactive)	> 100 µM (inactive)	> 100 µM (inactive)	> 100 µM (inactive)	> 100 µM (inactive)	> 100 µM (inactive)	> 100 µM (inactive)	> 100 µM (inactive)	> 100 µM (inactive)	> 100 µM (inactive)	> 100 µM (inactive)
c1ccc(C2=C(c3ccccc3)P(c3ccccc3)C2)cc1 (stereo not given)	> 100 µM (inactive)	> 100 µM (inactive)	> 100 µM (inactive)	> 100 µM (inactive)	> 100 µM (inactive)	40.5 µM (inactive)	64.3 µM (inactive)	–	> 100 µM (inactive)	57.4 µM (inactive)	> 100 µM (inactive)	67.1 µM (inactive)	53.2 µM (inactive)	47.6 µM (inactive)	48.1 µM (inactive)	41 µM (inactive)	> 100 µM (inactive)	> 100 µM (inactive)	68.1 µM (inactive)	> 100 µM (inactive)
CC(=O)Nn1c(=S)[nH]c2ccccc21	> 100 µM (inactive)	> 100 µM (inactive)	> 100 µM (inactive)	> 100 µM (inactive)	> 100 µM (inactive)	> 100 µM (inactive)	> 100 µM (inactive)	> 100 µM (inactive)	> 100 µM (inactive)	> 100 µM (inactive)	> 100 µM (inactive)	> 100 µM (inactive)	> 100 µM (inactive)	> 100 µM (inactive)	> 100 µM (inactive)	> 100 µM (inactive)	–	> 100 µM (inactive)	> 100 µM (inactive)	> 100 µM (inactive)
Cn1cc(NC(=O)Nc2cc(C(=O)Nc3cc(C(=O)Nc4ccc(S(=O)(=O)O)c5cc(S(=O)(=O)O)ccc45)n(C)c3)n(C)c2)cc1C(=O)Nc1cc(C(=O)Nc2ccc(S(=O)(=O)O)c3cc(S(=O)(=O)O)ccc23)n(C)c1	> 100 µM (inactive)	> 100 µM (inactive)	–	> 100 µM (inactive)	51.9 µM (inactive)	> 100 µM (inactive)	> 100 µM (inactive)	> 100 µM (inactive)	> 100 µM (inactive)	> 100 µM (inactive)	> 100 µM (inactive)	> 100 µM (inactive)	> 100 µM (inactive)	> 100 µM (inactive)	> 100 µM (inactive)	> 100 µM (inactive)	> 100 µM (inactive)	> 100 µM (inactive)	> 100 µM (inactive)	> 100 µM (inactive)
Cc1onc(-c2c(F)cccc2Cl)c1C(=O)N[C@@H]1C(=O)N2[C@@H]1SC(C)(C)[C@@H]2C(=O)O	> 100 µM (inactive)	> 100 µM (inactive)	> 100 µM (inactive)	> 100 µM (inactive)	> 100 µM (inactive)	44 µM (inactive)	> 100 µM (inactive)	> 100 µM (inactive)	> 100 µM (inactive)	> 100 µM (inactive)	> 100 µM (inactive)	> 100 µM (inactive)	> 100 µM (inactive)	> 100 µM (inactive)	> 100 µM (inactive)	> 100 µM (inactive)	> 100 µM (inactive)	> 100 µM (inactive)	> 100 µM (inactive)	> 100 µM (inactive)
COC(=O)[C@H](Cc1ccccc1)NP(=O)(OCCC#N)OCC1OC(n2cc(C)c(=O)[nH]c2=O)CC1N=[N+]=[N-] (stereo not given in full)	> 100 µM (inactive)	> 100 µM (inactive)	> 100 µM (inactive)	> 100 µM (inactive)	> 100 µM (inactive)	> 100 µM (inactive)	> 100 µM (inactive)	> 100 µM (inactive)	> 100 µM (inactive)	> 100 µM (inactive)	> 100 µM (inactive)	> 100 µM (inactive)	> 100 µM (inactive)	35 µM (inactive)	> 100 µM (inactive)	> 100 µM (inactive)	–	> 100 µM (inactive)	> 100 µM (inactive)	> 100 µM (inactive)
COC(=O)C(CCCCNC(=O)OCc1ccccc1)NC(=O)C(CCC(=O)OCc1ccccc1)NC(=O)OC(C)(C)C (stereo not given) (Boc-Glu(OBn)-Lys(Cbz)-OMe; configuration not given here)	> 100 µM (inactive)	> 100 µM (inactive)	86.7 µM (inactive)	> 100 µM (inactive)	> 100 µM (inactive)	27.7 µM (inactive)	> 100 µM (inactive)	> 100 µM (inactive)	73.6 µM (inactive)	> 100 µM (inactive)	> 100 µM (inactive)	54.3 µM (inactive)	> 100 µM (inactive)	56.9 µM (inactive)	> 100 µM (inactive)	64.4 µM (inactive)	> 100 µM (inactive)	> 100 µM (inactive)	> 100 µM (inactive)	–
